Results published in patent US20230242513A1, “NOVEL HETEROARYL-SUBSTITUTED PYRAZINE DERIVATIVES AS PESTICIDES” (Bayer Animal Health GmbH, priority 2020, published 2023).

Legend:
Type in all cases: in vivo
[1] = tested on: Rhipicephalus (Boophilus) microplus larvae (strain Parkhurst, resistant against synthetic pyrethroids); assay: Rhipicephalus (Boophilus) microplus in-vitro contact test, larval cattle tick; settings: application rate 5 μg/cm^2 (=500 g/ha); after 48 hours
Method: Rhipicephalus (Boophilus) microplus—In-Vitro Contact Tests Larval Cattle Tick (Strain Parkhurst, Resistant Against Synthetic Pyrethroids)
(§1) 9 mg compound is solved in 1 mL acetone and diluted with acetone to the desired concentration. 250 μL of the test solution is filled in 25 mL glass test tubes and homogeneously distributed on the inner walls by rotation and tilting on a shaking device (2 h at 30 rpm). With a compound concentration of 900 ppm, an inner surface of 44.7 cm^2 and a homogeneous distribution, a dose of 5 pg/cm^2 is achieved.
After the solvent has evaporated, each test tube is filled with 20-50 cattle tick larvae (Rhipicephalus microplus), closed with a perforated lid and incubated in a horizontal position at 85% relative humidity and 27° C. in an incubator. After 48 hours efficacy is determined. The larvae are patted on the ground of the tubes and negative geotactic behavior is recorded.
An efficacy of 100% means all larvae are dead or moribund; 0% means no larvae are dead or moribund.

[2] = tested on: Ctenocephalides felis (adult cat fleas); assay: Ctenocephalides felis in-vitro contact test, adult cat flea; settings: after 48 hours
Method: Ctenocephalides felis—In-Vitro Contact Tests Adult Cat Flea
as §1, with “μg/cm^2” for “pg/cm^2”
(§2) After the solvent has evaporated, each test tube is filled with 5-10 adult cat fleas (Ctenocephalides felis), closed with a perforated lid and incubated in a lying position at room temperature and relative humidity. After 48 hours efficacy is determined. The fleas are patted on the ground of the tubes and are incubated on a heating plate at 45-50° C. for at most 5 minutes. Immotile or uncoordinated moving fleas, which are not able to escape the heat by climbing upwards, are marked as dead or moribund.
An efficacy of 100% means all fleas are dead or moribund; 0% means no fleas are dead or moribund.

[3] = tested on: Diabrotica balteata (banded cucumber beetle larvae); assay: Diabrotica balteata spray test; settings: 168 h, wheat seeds, after 7 days, read-out: efficacy (seedlings grown up like untreated, uninfected control); for pest or weed control at 160 µg/disc, 500 g/ha: application rate 500 g/ha (=160 μg/well); for pest or weed control at 32 µg/disc, 100 g/ha: application rate 100 g/ha (=32 μg/well)
Method: Diabrotica balteata—Spray Test
(§3) Solvent: 78.0 parts by weight of acetone • • 1.5 parts by weight of dimethylformamide
(§4) Emulsifier: alkylarylpolyglycol ether
(§5) To produce a suitable preparation of active compound, 1 part by weight of active compound is mixed with the stated amount of solvent, and the concentrate is diluted with water, containing an emulsifier concentration of 1000 ppm, to the desired concentration. Further test concentrations are prepared by dilution with emulsifier containing water.
Soaked wheat seeds (Triticum aestivum) are placed in a multiple well plate filled with agar and some water and are incubated for 1 day to germinate (5 seeds per well). The germinated wheat seeds are sprayed with a test solution containing the desired concentration of the active ingredient. Afterwards each unit is infected with 10-20 larvae of the banded cucumber beetle (Diabrotica balteata).
After 7 days efficacy in % is determined. 100% means all the seedlings have grown up like in the untreated, uninfected control; 0% means none of the seedlings have grown.

[4] = tested on: Spodoptera frugiperda (fall armyworm larvae); assay: Spodoptera frugiperda spray test; settings: in Zea mays, 168 h
Method: Spodoptera frugiperda—Spray Test
Solvent: 78.0 parts by weight acetone • 1.5 parts by weight dimethylformamide
as §4
as §5, with “solvents” for “solvent,”, “and” for “and the concentrate”
Maize (Zea mays) leaf sections are sprayed with a preparation of the active ingredient of the desired concentration. Once dry, the leaf sections are infested with fall armyworm larvae (Spodoptera frugiperda).
After 7 days mortality in % is determined. 100% means all caterpillars have been killed and 0% means none of the caterpillars have been killed.

[5] = tested on: Nilaparvata lugens (brown planthopper); assay: Nilaparvata lugens spray test; settings: 96 h, application rate 500 g/ha, rice plants, after 4 days
Method: Nilaparvata lugens—Spray Test
as §3, §4
as §5, with “solvents” for “solvent,”, “and” for “and the concentrate”
Rice plants (Oryza sativa) are sprayed with a preparation of the active ingredient of the desired concentration and the plants are infested with the brown planthopper (Nilaparvata lugens).
After 4 days mortality in % is determined. 100% means all planthoppers have been killed and 0% means none of the planthoppers have been killed.

[6] = tested on: Rhipicephalus sanguineus (adult brown dog ticks); assay: Rhipicephalus sanguineus in-vitro contact test, adult brown dog ticks; settings: after 48 hours
Method: Rhipicephalus sanguineus—In-Vitro Contact Tests with Adult Brown Dog Ticks
as §1, with “μg/cm^2” for “pg/cm^2”
as §2, with “brown dog ticks (Rhipicephalus sanguineus),” for “cat fleas (Ctenocephalides felis),”, “ticks” for “fleas”, “ticks,” for “fleas,”
An efficacy of 100% means all ticks are dead or moribund; 0% means no ticks are dead or moribund.

[7] = tested on: Myzus persicae (green peach aphid); assay: Myzus persicae oral test; settings: 120 h, application rate 20 ppm, after 5 days
Method: Solvent: 100 parts by weight acetone
To produce a suitable preparation of active compound, 1 part by weight of active compound is mixed with the stated amount of solvent, and the concentrate is diluted with water to the desired concentration.
50 μL compound solution is filled in microtiter plates and 150 μL IPL41 insect medium (33%+15% sugar) is added to obtain a total volume of 200 μL per well. Afterwards the plates are sealed with parafilm through which a mixed population of the green peach aphid (Myzus persicae) can suck on the compound preparation.
After 5 days mortality in % is determined. 100% means all aphids have been killed and 0% means none of the aphids have been killed.

[8] = tested on: Nezara viridula (southern green stink bug larvae); assay: Nezara viridula spray test; settings: 96 h, application rate 500 g/ha, barley plants, after 4 days
Method: Nezara viridula—Spray Test
as §3, §4, §5
Barley plants (Hordeum vulgare) are sprayed with a test solution containing the desired concentration of the active ingredient and are infested with larvae of the southern green stink bug (Nezara viridula).
After 4 days mortality in % is determined. 100% means all the stink bugs have been killed; 0% means none of the stink bugs have been killed.

[9] = application rate 5 μg/cm^2 (=500 g/ha)
[10] = application rate 1 μg/cm^2 (=100 g/ha)

CCOC(=O)Cn1cc(-c2nccnc2C(C)NC(=O)c2cc(C(F)(F)F)cc(C(F)(F)F)c2)nn1 (racemic) [Example I-28, (rac)-Ethyl [4-(3-{1-[3,5-bis(trifluoromethyl)benzamido]ethyl}pyrazin-2-yl)-1H-1,2,3-triazol-1-yl]acetate]
efficacy (larvae dead or moribund) [1]: 100% | efficacy (fleas dead or moribund) [2, 9]: 100% | pest or weed control at 160 µg/disc, 500 g/ha [3]: 100%

CC(NC(=O)c1cc(C(F)(F)F)cc(C(F)(F)F)c1)c1nccnc1-c1cn(-c2ccn(C)n2)nn1 (racemic) [Example I-12, (rac)-N-1-{3-[1-(1-Methyl-1H-pyrazol-3-yl)-1H-1,2,3-triazol-4-yl]pyrazin-2-yl}ethyl]-3,5-bis(trifluoromethyl)benzamide]
efficacy (larvae dead or moribund) [1]: 90% | mortality at 100 g/ha [4]: 100%

CCN(C)C(=O)c1ncn(-c2nccnc2C(C)NC(=O)c2cc(Cl)cc(S(C)(=O)=O)c2)n1 (racemic) [Example I-25, (rac)-1-(3-{1-[3-Chloro-5-(methanesulfonyl)benzamido]ethyl}pyrazin-2-yl)-N-ethyl-N-methyl-1H-1,2,4-triazole-3-carboxamide]
mortality at 100 g/ha [4]: 100%

Cc1ncn(-c2nccnc2C(C)NC(=O)c2cc(Cl)cc(OC(F)(F)F)c2)n1 (racemic) [Example I-9, (rac)-3-Chloro-N-{1-[3-(3-methyl-1H-1,2,4-triazol-1-yl)pyrazin-2-yl]ethyl}-5-(trifluoromethoxy)benzamide]
pest or weed control at 32 µg/disc, 100 g/ha [3]: 100% | mortality at 100 g/ha [4]: 100%

CC(NC(=O)c1cc(C(F)(F)F)cc(C(F)(F)F)c1)c1nccnc1-c1cn(C)nn1 (racemic) [Example I-10, (rac)-N-{1-[3-(1-Methyl-1H-1,2,3-triazol-4-yl)pyrazin-2-yl]ethyl}-3,5-bis(trifluoromethyl)benz amide]
efficacy (larvae dead or moribund) [1]: 100% | pest or weed control at 32 µg/disc, 100 g/ha [3]: 100%

CC(NC(=O)c1cc(C(F)(F)F)cc(C(F)(F)F)c1)c1nccnc1-n1cncn1 (racemic) [Example I-5, (rac)-N-(1-[3-(1H-1,2,4-Triazol-1-yl)pyrazin-2-yl]ethyl)-3,5-bis(trifluoromethyl)benzamide]
pest or weed control at 32 µg/disc, 100 g/ha [3]: 100% | mortality at 500 g/ha [5]: 100% | mortality at 20 g/ha [4]: 83%

CCN(C)C(=O)c1ncn(-c2nccnc2C(C)NC(=O)c2cc(C(F)(F)F)cc(C(F)(F)F)c2)n1 (racemic) [Example I-21, (rac)-1-(3-{1-[3,5-Bis(trifluoromethyl)benzamido]ethyl}pyrazin-2-yl)-N-ethyl-N-methyl-1H-1,2,4-triazole-3-carboxamide]
efficacy (larvae dead or moribund) [1]: 100% | efficacy (fleas dead or moribund) [2, 10]: 80% | efficacy (ticks dead or moribund) [6, 10]: 80%

CC(NC(=O)c1cc(Cl)cc(S(C)(=O)=O)c1)c1nccnc1-n1nccn1 (racemic) [Example I-1, (rac)-3-Chloro-5-(methylsulfonyl)-N-{1-[3-(2H-1,2,3-triazol-2-yl)pyrazin-2-yl]ethyl}benzamide]
efficacy (larvae dead or moribund) [1]: 90% | efficacy (ticks dead or moribund) [6, 9]: 100% | pest or weed control at 32 µg/disc, 100 g/ha [3]: 100% | pest or weed control at 160 µg/disc, 500 g/ha [3]: 100% | mortality at 20 ppm [7]: 100% | mortality at 500 g/ha [8]: 100%

Cc1ncn(-c2nccnc2C(C)NC(=O)c2cc(Br)cc(Br)c2)n1 (racemic) [Example I-2, 3,5-Dibromo-N-{(rac)-1-[3-(3-methyl-1H-1,2,4-triazol-1-yl)pyrazin-2-yl]ethyl}benzamide]
pest or weed control at 32 µg/disc, 100 g/ha [3]: 100%

CC(NC(=O)c1cc(Cl)cc(OC(F)(F)F)c1)c1nccnc1-c1cn(C)nn1 (racemic) [Example I-11, (rac)-3-Chloro-N-{1-[3-(1-methyl-1H-1,2,3-triazol-4-yl)pyrazin-2-yl]ethyl}-5-(trifluoromethoxy)benzamide]
pest or weed control at 32 µg/disc, 100 g/ha [3]: 100%

Cc1ncn(-c2nccnc2C(C)NC(=O)c2cc(Cl)cc(S(C)(=O)=O)c2)n1 (racemic) [Example I-4, (rac)-3-Chloro-5-(methanesulfonyl)-N-{1-[3-(3-methyl-1H-1,2,4-triazol-1-yl)pyrazin-2-yl]ethyl}benzamide]
pest or weed control at 32 µg/disc, 100 g/ha [3]: 100% | mortality at 500 g/ha [8]: 70%

Cc1ncn(-c2nccnc2C(C)NC(=O)c2cc(C(F)(F)F)cc(C(F)(F)F)c2)n1 (racemic) [Example I-3, (rac)-N-{1-[3-(3-Methyl-1H-1,2,4-triazol-1-yl)pyrazin-2-yl]ethyl}-3,5-bis(trifluoromethyl)benzamide]
mortality at 500 g/ha [5]: 90% | mortality at 100 g/ha [4]: 100%

CC(NC(=O)c1cc(Cl)cc(S(C)(=O)=O)c1)c1nccnc1-n1cncn1 (racemic) [Example I-6, (rac)-3-Chloro-5-(methanesulfonyl)-N-{1-[3-(1H-1,2,4-triazol-1-yl)pyrazin-2-yl]ethyl}benzamide]
pest or weed control at 32 µg/disc, 100 g/ha [3]: 100% | mortality at 500 g/ha [8]: 90% | mortality at 500 g/ha [5]: 100%

CC(NC(=O)c1cc(Br)cc(Br)c1)c1nccnc1-n1cncn1 (racemic) [Example I-7, (rac)-3,5-Dibromo-N-{1-[3-(1H-1,2,4-triazol-1-yl)pyrazin-2-yl]ethyl}benzamide]
pest or weed control at 32 µg/disc, 100 g/ha [3]: 100%

CC(NC(=O)c1cc(C(F)(F)F)cc(C(F)(F)F)c1)c1nccnc1-n1cnc(C#N)n1 (racemic) [Example I-27, (rac)-N-{1-[3-(3-Cyano-1H-1,2,4-triazol-1-yl)pyrazin-2-yl]ethyl}-3,5-bis(trifluoromethyl)benzamide]
efficacy (larvae dead or moribund) [1]: 100%

CC(NC(=O)c1cc(Br)cc(Br)c1)c1nccnc1-c1cn(C)nn1 (racemic) [Example I-15, (rac)-3,5-Dibromo-N-{1-[3-(1-methyl-1H-1,2,3-triazol-4-yl)pyrazin-2-yl]ethyl}benzamide]
pest or weed control at 32 µg/disc, 100 g/ha [3]: 100%
